Measured values: US5081264A, “Bioxanthracene derivatives” (Kyowa Hakko Kabushiki Kaisha, priority 1989, dated 1992)
Read-outs that look alike come from different tables or passages of the source.

Legend:
Solubility = assay type: physicochemical
[1] = test system: CAI area neurons of the hippocampus; assay: Protection of nerve cells from ischaemic injury; assay type: in vivo, Mongolian gerbils
Source text: Ischaemic injury of the nervous system was induced in the CAI area of the hippocampus of Mongolian gerbils by closing and reperfusing two cartoid arteries with reference to the Kirino et al method [Cerebral Nerve, Vol. 38, No. 12, 1157-1163 (1986)] as follows.
On each occasion, the test compound was suspended in a physiological solution of sodium chloride. The animal (body weight 60-70 g) was anesthetized with ether. The left and right common cartoid arteries were exposed through midcervical vertical skin incision and the anesthetic was discontinued. The cartoid arteries on both sides were occluded for 5 minutes using aneurism clips. Immediately after this, a given amount (100 mg/kg) of Compound ES-242-1 was given orally to the animal. One week after this, the animal was fixed by transcardic perfusion. Immediately after this, the brain was removed from the animal to prepare a sample of the histologic section containing the CIA area of the hippocampus. The number of normal cells of the CAI area neurons per 1 mm linear length was counted.
The above-mentioned treatment is hereinafter referred to as the ischaemic treatment.
For control purposes, a group of the animals were given a physiological solution of sodium chloride only, without ischaemic treatment. […]

[2] = test system: nerve cells (septal area of the brain of a fetal rat); assay: Protection of cultured nerve cells (septal area) against L-glutamic acid; assay type: cell-based; conditions: L-glutamic acid 100 μM
Method: Protection of cultured nerve cells
(§1) The septal area was taken out from the brain of a fetal rat. The cells were dispersed using trypsin and deoxyribonuclease and were cultured for one day on a Pit medium (Dulbecco modified Eagle medium or Ham F12 medium, commercial products of Nissui Seiyaku K. K., Japan) containing 5% horse serum and 5% fetal calf serum. After adding cytosine arabinoide (10μM) to the medium, the culturing was continued for 10 days.
(§2) L-glutamic acid (100 μM) and ES-242-1 were added to the cultured broth to measure the survival ratio of the nerve cells. For control purposes, a similar procedure was carried out with the exception that glutamic acid (100μM) and/or ES-242-1 were replaced by dimethylsulfoxide (DMSO) (0.5%). The cells which survived were counted by the fluorescence-dying method with reference to the Costa et al. method [Proc. Natl. Acad. Sci., U.S.A., 85, 7351-7355 (1988)].
(§3) The results shown in the following Table 3 were obtained in a manner similar to that described above except the cerebellum was used instead of the septal area. In the following tables, the term "GA" denotes L-glutamic acid (unit 100μM) and the term "SR" denote the survival ratio of the cells (%).

[3] = test system: nerve cells (cerebellum of a rat); assay: Protection of cultured nerve cells (cerebellum) against L-glutamic acid; assay type: cell-based; conditions: L-glutamic acid 100 μM; for viability at 5 µg/mL / viability at 1 µg/mL / viability at 10 µg/mL: Rattus norvegicus, cerebellum, read-out: survival ratio of the cells (SR); for viability at 5 µg/mL: test compound 5 μg/ml; for inhibition of the death of nerve cells induced by L-glutamic acid: cerebellum (Tables 4 and 5); for viability at 1 µg/mL: test compound 1 μg/ml; for viability at 10 µg/mL: test compound 10 μg/ml
Method: as §1, §2, §3
The results shown in the following Tables 4 and 5 were obtained by a procedure similar to that described in Experiment 1 above with the exception that the cerebellum of a rat and ES-242-2 or ES-242-5 were respectively used instead of the septal area and ES-242-1.

[4] = molecular target: N-methyl-D-aspartic acid receptor; assay: Binding activity to N-methyl-D-aspartic acid receptor ([3H]TCP binding in rat brain membranes); conditions: rat brain membranes (crushed cerebrum)
Method: The binding activity of Compounds ES-242 to N-methyl-D-aspartic acid receptor was measured as follows.
With reference to the modified method of Vignon et al [Brain Research, 280, 194-197 (1983)], the binding activity of ES-242 to N-[1-(2-thienyl) cyclohexyl]-3,4-[^3 H]piperidine ([^3 H]TCP) in rat brain membranes was measured by the use of a crushed cerebrum of a rat and expressed by IC50 viz. a concentration required for 50% inhibition of the binding ability to the sample.

[5] = test system: N-methyl-D-aspartic acid receptors; conditions: literature report; cited from earlier work
[6] = literature report; cited from earlier work
[7] = literature report; cited from earlier work; remark: listed apart in the source
nervous system = conditions: literature report; cited from earlier work
[8] = Table 4, control 95, GA alone 56
[9] = Table 5, control 88, GA alone 40

## COc1cc(OC)c2c(O)c3c(c(-c4c5c(c(O)c6c(OC)cc(OC)cc46)COC(C)C5OC(C)=O)c2c1)CC(C)OC3 (centres unmarked) [ES-242-1]
Solubility; methanol, acetone, ethyl acetate and chloroform
  Solubility: Readily soluble
Solubility; water and n-hexane
  Solubility: Insoluble
[1]; 100 mg/kg oral immediately after 5 min occlusion, one week, n=5, normal control 100 ± 4.7, ischaemic control 0 ± 0
  number of normal cells in average ± standard deviation (N): 24.4 ± 20.6 cells/mm
[1]; 100 mg/kg oral, gerbils
  protecting activity to ischaemic injury of the nervous system: exhibited a significant protecting activity
[2]; septal area and cerebellum (Tables 2 and 3)
  inhibition of the death of nerve cells induced by L-glutamic acid: inhibited the death of the nerve cells
[2]; Rattus norvegicus, septal area, test compound 0.1 μg/ml, control 87, GA alone 5, read-out: survival ratio of the cells (SR)
  viability at 0.1 µg/mL: 23%
[2]; Rattus norvegicus, septal area, test compound 0.5 μg/ml, control 87, GA alone 5, read-out: survival ratio of the cells (SR)
  viability at 0.5 µg/mL: 73%
[3]; Table 3, control 90, GA alone 44
  viability at 5 µg/mL: 75%
[4]
  IC50 (50% inhibition of [3H]TCP binding): 0.1 µg/mL

## COc1cc(OC)c2c(O)c3c(c(-c4c5c(c(O)c6c(OC)cc(OC)cc46)COC(C)C5OC(C)=O)c2c1)C(OC(C)=O)C(C)OC3 (centres unmarked) [ES-242-2]
[2]; Rattus norvegicus, septal area, test compound 5 μg/ml, control 87, GA alone 5, read-out: survival ratio of the cells (SR)
  viability at 5 µg/mL: 74%
[2]; Rattus norvegicus, septal area, test compound 50 μg/ml, control 87, GA alone 5, read-out: survival ratio of the cells (SR)
  viability at 50 µg/mL: 74%
[3]
  inhibition of the death of nerve cells induced by L-glutamic acid: inhibit the death of the nerve cells
[3]; [8]
  viability at 1 µg/mL: 44%
  viability at 10 µg/mL: 88%
[4]
  IC50 (50% inhibition of [3H]TCP binding): 1.9 µg/mL

## COc1cc(OC)c2c(O)c3c(c(-c4c5c(c(O)c6c(OC)cc(OC)cc46)COC(C)C5OC(C)=O)c2c1)C(O)C(C)OC3 (centres unmarked) [ES-242-3]
[4]
  IC50 (50% inhibition of [3H]TCP binding): 1.8 µg/mL

## COc1cc(OC)c2c(O)c3c(c(-c4c5c(c(O)c6c(OC)cc(OC)cc46)COC(C)C5O)c2c1)C(O)C(C)OC3 (centres unmarked) [ES-242-4]
[4]
  IC50 (50% inhibition of [3H]TCP binding): 14.6 µg/mL

## COc1cc(OC)c2c(O)c3c(c(-c4c5c(c(O)c6c(OC)cc(OC)cc46)COC(C)C5O)c2c1)CC(C)OC3 (centres unmarked) [ES-242-5]
[3]
  inhibition of the death of nerve cells induced by L-glutamic acid: inhibit the death of the nerve cells
[3]; [9]
  viability at 1 µg/mL: 68%
  viability at 5 µg/mL: 73%
  viability at 10 µg/mL: 79%
[4]
  IC50 (50% inhibition of [3H]TCP binding): 0.6 µg/mL

## COc1cc2c(-c3c(OC)c(C)c(O)c4c(O)c5c(cc34)C[C@](C)(O)CC5=O)c3c(c(O)c2c(O)c1C)C(=O)C[C@@](C)(O)C3 [Singueanol II]
[5]
  antagonism against N-methyl-D-aspartic acid receptors: nor antagnostic against N-methyl-D-aspartic acid receptors
[6]
  anti-bacterial activity: exhibit anti-aspartic and anti-bacterial activity
[7]
  anti-aspartic activity: exhibit anti-aspartic
Nervous system
  capability of protecting the nervous system: neither capable of protecting the nervous system
